Numbered stars: 1 amine (or outer) side, 2 acyl side, 3 side chain; on linkers, the order of the positions; unused ones are H or OH. Peptide text beside a SMILES is read from it. * marks the point of attachment. AMC = Cc1cc(=O)oc2cc(N*)ccc12; Suc = O=C(CCC(=O)[*:2])[*:1]; Boc = CC(C)(C)OC(=O)*; OBn = c1ccc(CO*)cc1
How the values were obtained:
[1] = test system: Benz-I (protease specific for basic amino acid residue); assay: Behavior of Benz-I against various inhibitors (residual activity); format: biochemical, Kluyveromyces lactis IFO 1903; conditions: 25° C. 30 minutes, control lot = 100
[2] = test system: Benz-II (protease specific for basic amino acid residue); assay: Behavior of Benz-II against various inhibitors (residual activity); format: biochemical, Kluyveromyces lactis IFO 1903; conditions: 25° C. 30 minutes, control lot = 100
[3] = test system: protease specific for basic amino acid residue from Sporobolomyces odrus IFO 1597; assay: Behavior of Sporobolomyces protease against various inhibitors (residual activity); format: biochemical; conditions: Ca2+ +, 25° C. 30 minutes
[4] = test system: protease specific for basic amino acid residue from Sporobolomyces odrus IFO 1597; assay: Substrate specificity of Sporobolomyces protease with fluorescent substrates; format: biochemical; conditions: activity for Boc-Gln-Arg-Arg-MCA being 100; standard conditions
Experimental: A reaction mixture containing 50 μmol of tris hydrochloride buffer solution (pH 7.0), 10 mg of Lubrol PX, 0.5 μmol of calcium chloride, 0.1 μmol of Boc-Gln-Arg-Arg-MCA, wherein Boc represents a t-butyloxycalbonyl group while MCA represents 4-methylcoumarin-7-amide and the enzyme is allowed to react at 30° C. The fluorescence (excition wavelength: 380 nm, emission wavelength: 460 nm) originating from the 7-amino-4-methylcoumarin (AMC) thus formed is monitored. The amount of the enzyme capable of catalyzing the release of 1 nmol of AMC per one minute is defined as 1 U.
The activities of the enzyme for various fluorescent substrates were determined under standard reaction conditions.

[5] = test system: Benz-II (protease specific for basic amino acid residue); assay: Substrate specificity of Benz-II with fluorescent substrates; format: biochemical, Kluyveromyces lactis IFO 1903; conditions: activity for Boc-Gln-Arg-Arg-MCA being 100; standard conditions
Experimental: (§1) 1 ml of a reaction mixture containing 50 μmol of Tris-hydrochloride buffer (pH 7.0), 10 mg of Lubrol PX, 0.5 μmol of calcium chloride, 0.1 μmol of Boc-Gln-Arg-Arg-MCA, wherein Boc represents a t-butyloxycarbonyl group while MCA represents 4-methylcoumarin-7-amide and the enzyme is allowed to react at 30° C. The fluorescence (excition wavelength: 380 nm, emmision wavelength: 460 nm) originating from the 7-amino-4-methylcoumarin (AMC) thus formed is monitored with the lapse of time. The amount of the enzyme activity capable of catalyzing the release of 1 n mol of AMC per one minute is defined as 1 U. The specific activity is represented by U per mg of protein. The amount of the protein is determined by measurement the absorbance at […] as E^1% of protein being assumed to be 10.
(§2) The activities of Benz-I and Benz-II were determined under standard conditions with the use of various fluorescent substrates. The activity for each substrate was expressed by relative activity with the activity for Boc-Gln-Arg-Arg-MCA being 100.

[6] = test system: Benz-I (protease specific for basic amino acid residue); assay: Substrate specificity of Benz-I with fluorescent substrates; format: biochemical, Kluyveromyces lactis IFO 1903; conditions: activity for Boc-Gln-Arg-Arg-MCA being 100; standard conditions
Experimental: as §1, §2

## CCCCC(NC(=O)C=[N+]=[N-])C(=O)OC (racemic) [diazoacetyl-DL-norleucine methyl ester]
[1]; inhibitor 5 mM
  Residual activity of Benz-I: 85
[2]; inhibitor 5 mM
  Residual activity of Benz-II: 73
[3]; inhibitor 5 mM
  relative activity (residual): 72%

## O[C@H](CS)[C@H](O)CS (racemic) [dithiothreitol]
[1]; inhibitor 1 mM
  Residual activity of Benz-I: 96
[2]; inhibitor 1 mM
  Residual activity of Benz-II: 128
[3]; inhibitor 1 mM
  relative activity (residual): 97%

## OCCS [2-mercaptoethanol]
[1]; inhibitor 1 mM
  Residual activity of Benz-I: 112
[2]; inhibitor 1 mM
  Residual activity of Benz-II: 153
[3]; inhibitor 1 mM
  relative activity (residual): 95%

## Cc1cc(=O)oc2cc(NC(=O)[C@@H](N)CCCNC(=N)N)ccc12 [Arg--MCA]
[4]
  Activity (relative) for substrate: < 1%

## Cc1cc(=O)oc2cc(NC(=O)[C@H](CCCNC(=N)N)NC(=O)[C@@H]3CCCN3C(=O)CNC(=O)[C@H](C)NC(=O)OC(C)(C)C)ccc12 [Boc--Ala--Gly--Pro--Arg--MCA] (Boc-AGPR-{AMC})
[5]
  Relative activity of Benz-II for substrate: 1.6
[6]
  Relative activity of Benz-I for substrate: 1.9
[4]
  Activity (relative) for substrate: 1%

## Cc1cc(=O)oc2cc(NC(=O)[C@H](CCCNC(=N)N)NC(=O)[C@@H]3CCCN3C(=O)[C@H](CC(=O)OCc3ccccc3)NC(=O)OC(C)(C)C)ccc12 [Boc--Asp(OBzl)--Pro--Arg--MCA] (Boc-Asp(OBn)-Pro-Arg-{AMC})
[5]
  Relative activity of Benz-II for substrate: 7.8
[6]
  Relative activity of Benz-I for substrate: 12.3
[4]
  Activity (relative) for substrate: 5%

## Cc1cc(=O)oc2cc(NC(=O)[C@H](CCCNC(=N)N)NC(=O)[C@H](CCCNC(=N)N)NC(=O)[C@H](CCC(N)=O)NC(=O)OC(C)(C)C)ccc12 [Boc--Gln--Arg--Arg--MCA, Boc-Gln-Arg-Arg-MCA] (Boc-Gln-Arg-Arg-{AMC})
[5]
  Relative activity of Benz-II for substrate: 100
[6]
  Relative activity of Benz-I for substrate: 100
[4]
  Activity (relative) for substrate: 100%

## Cc1cc(=O)oc2cc(NC(=O)[C@H](CCCCN)NC(=O)[C@H](CCCCN)NC(=O)[C@H](CCC(=O)O)NC(=O)OC(C)(C)C)ccc12 [Boc--Glu--Lys--Lys--MCA] (Boc-Glu-Lys-Lys-{AMC})
[5]
  Relative activity of Benz-II for substrate: 0.9
[6]
  Relative activity of Benz-I for substrate: 1.3
[4]
  Activity (relative) for substrate: 0%

## Cc1cc(=O)oc2cc(NC(=O)[C@H](CCCNC(=N)N)NC(=O)[C@H](CCCNC(=N)N)NC(=O)CNC(=O)OC(C)(C)C)ccc12 [Boc--Gly--Arg--Arg--MCA]
[5]
  Relative activity of Benz-II for substrate: 19.7
[6]
  Relative activity of Benz-I for substrate: 19.8
[4]
  Activity (relative) for substrate: 32%

## CC[C@H](C)[C@H](NC(=O)OC(C)(C)C)C(=O)N[C@@H](CCC(=O)O)C(=O)NCC(=O)N[C@@H](CCCNC(=N)N)C(=O)Nc1ccc2c(C)cc(=O)oc2c1 [Boc--Ile--Glu--Gly--Arg--MCA] (Boc-IEGR-{AMC})
[4]
  Activity (relative) for substrate: 5%

## Cc1cc(=O)oc2cc(NC(=O)[C@H](CCCNC(=N)N)NC(=O)CNC(=O)[C@H](CC(C)C)NC(=O)OC(C)(C)C)ccc12 [Boc--Leu--Gly--Arg--MCA] (Boc-Leu-Gly-Arg-{AMC})
[4]
  Activity (relative) for substrate: 1%

## Cc1cc(=O)oc2cc(NC(=O)[C@H](CCCCN)NC(=O)[C@H](CC(C)C)NC(=O)[C@@H](NC(=O)OC(C)(C)C)C(C)C)ccc12 [Boc--Val--Leu--Lys--MCA] (Boc-Val-Leu-Lys-{AMC})
[4]
  Activity (relative) for substrate: 0%

## Cc1cc(=O)oc2cc(NC(=O)[C@H](CCCNC(=N)N)NC(=O)c3ccccc3)ccc12 [Bz--Arg--MCA]
[4]
  Activity (relative) for substrate: 0%

## CC(C)C[C@H](NC(=O)[C@H]1O[C@@H]1C(=O)O)C(=O)NCCCCNC(=N)N [E-64]
[1]; inhibitor 10 μM
  Residual activity of Benz-I: 99
[2]; inhibitor 10 μM
  Residual activity of Benz-II: 96
[3]; inhibitor 10 μM
  relative activity (residual): 100%

## Cc1cc(=O)oc2cc(NC(=O)[C@@H](N)CC(C)C)ccc12 [Leu--MCA]
[4]
  Activity (relative) for substrate: < 1%

## CCN1C(=O)C=CC1=O [N-ethylmaleimide]
[1]; inhibitor 1 mM
  Residual activity of Benz-I: 101
[2]; inhibitor 1 mM
  Residual activity of Benz-II: 94
[3]; inhibitor 1 mM
  relative activity (residual): 125%

## Cc1cc(=O)oc2cc(NC(=O)[C@H](CCCNC(=N)N)NC(=O)[C@H](Cc3ccccc3)NC(=O)[C@@H]3CCCN3)ccc12 [Pro--Phe--Arg--MCA] (H-Pro-Phe-Arg-{AMC})
[4]
  Activity (relative) for substrate: 0%

## Cc1cc(=O)oc2cc(NC(=O)[C@H](Cc3ccccc3)NC(=O)[C@@H]3CCCN3C(=O)[C@H](C)NC(=O)[C@H](C)NC(=O)CCC(=O)O)ccc12 [Suc--Ala--Ala--Pro--Phe--MCA] (Suc-AAPF-{AMC})
[4]
  Activity (relative) for substrate: < 1%

Source: patent US5053333A, “Protease” (M & D Research Co., Ltd., priority 1988, dated 1991)
